Measurements as given in publication PMC8151276, “An Integrated Approach toward NanoBRET Tracers for Analysis of GPCR Ligand Engagement” (Molecules, 2021).

Columns and labels:
Assay type in all cases: binding
[1] = target: T1, GRM4 (Homo sapiens, UniProt Q14833); assay: NanoBRET screen HiBiT-GRM4 in HEK293
T1 construct: purchased Promega (in-house HiBiT-GPCR construct library, NanoBRET)
Protocol: (§1) Each tracer candidate was screened across the entire library of HiBiT-GPCR constructs using NanoBRET as the detection modality. As depicted in Figure 4A, the specificity of interactions was evaluated through decrease in BRET due to competitive displacement of a bound tracer by excess parental compound. Each tracer was analyzed for binding to each HiBiT-GPCR fusion in the absence and in the presence of competing parental compound. Briefly, HEK293 cells were transfected with HiBiT-GPCR constructs diluted into promoterless DNA to reduce expression and maximize translocation to the cell surface. Each tracer candidate was then screened at concentrations of 1 μM and 0.1 μM across cells expressing these fusions. Cells were treated for 1.5 h with tracer either alone or in the presence of 20 μM competing parental compound (i.e., control). BRET was measured upon addition of purified LgBiT and subsequent complementation with HiBiT genetically fused to a GPCR. The specificity of interactions was assessed through a decrease in BRET signal due to competitive displacement of the bound tracer. To further gauge the robustness of these interactions, the fold response over the control (i.e., BRETtracer/BRETcontrol) was calculated. We chose a 1.5-fold response, which translates to ≥7-fold signal over noise as the minimal threshold required to score an interaction as positive. […]. Below we highlight the screening results obtained for our exemplary fluorescent tracers based on Clozapine, Amitriptyline and AZD1283.
(§2) HiBiT-GPCR DNA constructs were diluted in 10 mM Tris pH 8 to a final concentration of 0.01 μg/μL, arrayed in 96-well plates and stored at −20 °C. For transfection, HEK293 cells were suspended in Opti-MEM (without phenol red) supplemented with 2% fetal bovine serum (Seradigm) and 100 units/mL penicillin–streptomycin (Gibco) at a final concentration of 220,000 cells/mL and dispensed into white 96-well plates at 90 μL/well. Subsequent transfections and screens were carried using an Agilent Bravo Automated Liquid Handling Platform. First, the 96-well HiBiT DNA arrays were diluted 25-fold in Opti-MEM (without serum or phenol red) to a final concentration of 0.0004 μg/μL and 20 μL of the diluted DNAs were transferred into new 96-well plates. Next, promoterless carrier DNA (1 μg/μL) was diluted 25-fold (0.04 μg/μL) and then dispensed into the diluted arrays at 20 μL/well. Following brief mixing, Viafect transfection reagent (Promega) diluted 16-fold into Opti-MEM was dispensed into the plates at 40 μL/well. After mixing by pipetting, plates were incubated for 10 min on the pipetting station deck. The DNA-transfection reagent complexes were then added to plates containing cells. To facilitate the screen, 10 μL of DNA-transfection reagent complexes were added in duplicates to the top 4 and bottom 4 rows, resulting in two identical 48-well arrays per plate. Plates with transfected cells were incubated for 18–20 h at 37 °C/5% CO2. A screen of each tracer across the entire library using two different concentrations requires duplicate plates of transfected cells. Depending on the number of tracers being screened, transfections can be scaled up using the same ratios. The next day, for each tracer, four 20× screening solutions in tracer dilution buffer (Promega) were prepared: two duplicates at final concentration of 20 μM and two duplicates at a final concentration of 2 μM. A competing unmodified compound was added to one of each duplicate at a final concentration of 400 μM. The four resulting solutions were diluted 4-fold in Opti-MEM without serum or phenol red to generate 5× solutions (5 µM and 0.5 µM tracer +/− 100 μM competing compound). To screen the library, a BioTek MultiFlo FX liquid dispenser was used to dispense 22.5 µL of tracer solution to the top 4 rows and 22.5 µL tracer + competing compound solution to the 4 bottom rows. Plates were briefly mixed on an orbital shaker and incubated for 1.5 h at room temperature. […]

[2] = target: T2, NPFFR2 (Homo sapiens, UniProt Q9Y5X5); assay: NanoBRET screen HiBiT-NPFFR2 in HEK293
T2 construct: purchased Promega (in-house HiBiT-GPCR construct library, NanoBRET)
T2 sequence (Q9Y5X5 whole entry): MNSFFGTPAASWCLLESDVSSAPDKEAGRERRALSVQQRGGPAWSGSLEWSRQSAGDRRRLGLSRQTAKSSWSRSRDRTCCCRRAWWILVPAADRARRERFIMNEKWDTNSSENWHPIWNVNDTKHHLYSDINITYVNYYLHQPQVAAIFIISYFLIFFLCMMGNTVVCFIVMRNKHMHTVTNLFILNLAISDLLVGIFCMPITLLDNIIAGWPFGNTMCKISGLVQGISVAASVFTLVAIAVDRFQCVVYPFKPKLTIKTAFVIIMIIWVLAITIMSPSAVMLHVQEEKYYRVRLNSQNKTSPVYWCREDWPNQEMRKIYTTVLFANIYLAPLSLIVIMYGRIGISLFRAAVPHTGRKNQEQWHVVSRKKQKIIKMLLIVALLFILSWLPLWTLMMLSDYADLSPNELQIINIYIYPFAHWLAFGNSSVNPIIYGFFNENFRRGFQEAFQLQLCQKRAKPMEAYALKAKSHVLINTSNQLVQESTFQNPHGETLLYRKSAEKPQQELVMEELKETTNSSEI
Protocol: as §1, §2

[3] = target: T3, ADORA1 (Homo sapiens, UniProt P30542); assay: NanoBRET screen HiBiT-ADORA1 in HEK293
T3 construct: purchased Promega (in-house HiBiT-GPCR construct library, NanoBRET)
T3 sequence (P30542 1-326): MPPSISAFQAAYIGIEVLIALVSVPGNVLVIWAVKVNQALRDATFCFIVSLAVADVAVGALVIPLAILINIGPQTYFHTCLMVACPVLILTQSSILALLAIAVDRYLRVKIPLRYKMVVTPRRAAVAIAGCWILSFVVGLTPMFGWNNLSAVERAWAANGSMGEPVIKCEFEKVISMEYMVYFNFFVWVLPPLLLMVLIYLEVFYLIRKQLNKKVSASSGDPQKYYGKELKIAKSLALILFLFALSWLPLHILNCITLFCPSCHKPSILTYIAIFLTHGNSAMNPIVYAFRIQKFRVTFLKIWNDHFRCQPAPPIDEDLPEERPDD
Protocol: as §1, §2

[4] = target: T4, ADRB1 (Homo sapiens, UniProt P08588); assay: NanoBRET screen HiBiT-ADRB1 in HEK293
T4 construct: purchased Promega (in-house HiBiT-GPCR construct library, NanoBRET)
T4 sequence (P08588 whole entry): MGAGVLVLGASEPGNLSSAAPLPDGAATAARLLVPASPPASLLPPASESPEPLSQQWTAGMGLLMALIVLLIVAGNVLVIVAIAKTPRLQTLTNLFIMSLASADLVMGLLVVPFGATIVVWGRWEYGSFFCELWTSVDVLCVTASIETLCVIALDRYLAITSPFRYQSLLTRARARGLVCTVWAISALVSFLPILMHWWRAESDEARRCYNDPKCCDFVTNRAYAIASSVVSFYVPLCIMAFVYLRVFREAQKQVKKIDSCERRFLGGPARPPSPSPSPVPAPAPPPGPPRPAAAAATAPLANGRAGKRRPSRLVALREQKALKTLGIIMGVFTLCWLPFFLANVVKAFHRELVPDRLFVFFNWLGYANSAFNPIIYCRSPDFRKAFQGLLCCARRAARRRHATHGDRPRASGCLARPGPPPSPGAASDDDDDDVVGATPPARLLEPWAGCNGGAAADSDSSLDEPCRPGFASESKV

T1 sequence (Q14833 33-912): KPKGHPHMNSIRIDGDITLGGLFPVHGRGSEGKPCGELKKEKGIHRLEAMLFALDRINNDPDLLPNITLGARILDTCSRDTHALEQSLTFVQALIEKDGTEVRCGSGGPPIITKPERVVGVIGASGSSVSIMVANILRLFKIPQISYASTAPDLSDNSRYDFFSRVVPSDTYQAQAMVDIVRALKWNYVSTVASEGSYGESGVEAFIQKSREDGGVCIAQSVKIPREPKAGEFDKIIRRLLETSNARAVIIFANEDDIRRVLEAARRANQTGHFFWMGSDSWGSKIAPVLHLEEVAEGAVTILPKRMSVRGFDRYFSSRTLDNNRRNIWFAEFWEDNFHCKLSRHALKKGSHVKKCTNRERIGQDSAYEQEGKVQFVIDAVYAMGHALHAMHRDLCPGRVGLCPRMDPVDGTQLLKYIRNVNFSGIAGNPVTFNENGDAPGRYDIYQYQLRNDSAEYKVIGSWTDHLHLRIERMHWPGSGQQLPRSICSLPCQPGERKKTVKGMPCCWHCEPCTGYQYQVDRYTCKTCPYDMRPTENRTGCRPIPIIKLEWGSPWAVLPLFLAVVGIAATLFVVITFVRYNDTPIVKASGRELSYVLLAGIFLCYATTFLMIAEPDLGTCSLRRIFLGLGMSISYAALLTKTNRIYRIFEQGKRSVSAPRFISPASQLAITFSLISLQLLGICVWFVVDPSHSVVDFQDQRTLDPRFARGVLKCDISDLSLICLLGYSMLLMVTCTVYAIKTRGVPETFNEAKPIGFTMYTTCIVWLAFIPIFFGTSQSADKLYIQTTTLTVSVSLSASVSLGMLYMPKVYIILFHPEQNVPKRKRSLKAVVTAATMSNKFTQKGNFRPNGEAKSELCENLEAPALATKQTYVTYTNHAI

SMILES | NanoBRET Fold Response ([1]; GRM4, tracer 0.1μM) | NanoBRET Fold Response ([1]; GRM4, tracer 1μM) | NanoBRET Fold Response ([2]; NPFFR2, tracer 0.1μM) | NanoBRET Fold Response ([2]; NPFFR2, tracer 1μM) | NanoBRET Fold Response ([3]; ADORA1, tracer 0.1μM) | NanoBRET Fold Response ([3]; ADORA1, tracer 1μM) | NanoBRET Fold Response ([4]; ADRB1, tracer 0.1μM) | NanoBRET Fold Response ([4]; ADRB1, tracer 1μM) | further results
O=C(CCc1ccc2n1[B-](F)(F)[N+]1=C(c3ccc[nH]3)C=CC1=C2)NCCOCCOCCNC(=O)OCCOCCN1CCN(C2=Nc3ccccc3Sc3ccccc32)CC1 [Quetiapine-a-2-NB590] | 0.99 | 0.92 | 0.99 | 0.97 | 1.30 | 1.07 | 1.00 | 0.91 | –
O=C(CCOCCOCCOCCOCCNC(=O)CCc1ccc2n1[B-](F)(F)[N+]1=C(c3ccc[nH]3)C=CC1=C2)NCCCN1CCN(C2=Nc3cc(Cl)ccc3Nc3ccccc32)CC1 [Clozapine-a-2-NB590] | – | – | – | – | – | – | – | – | NanoBRET Fold Response ([1]; GRM4, 0.1μM tracer): 1.02; NanoBRET Fold Response ([1]; GRM4, 1μM tracer): 0.99; NanoBRET Fold Response ([2]; NPFFR2, 0.1μM tracer): 1.00; NanoBRET Fold Response ([2]; NPFFR2, 1μM tracer): 0.97; NanoBRET Fold Response ([3]; ADORA1, 0.1μM tracer): 1.00; NanoBRET Fold Response ([3]; ADORA1, 1μM tracer): 1.01; NanoBRET Fold Response ([4]; ADRB1, 0.1μM tracer): 0.95; NanoBRET Fold Response ([4]; ADRB1, 1μM tracer): 0.94
N#CN=C(NCCCOc1cccc(CN2CCCCC2)c1)NCCNC(=O)CCOCCOCCOCCOCCNC(=O)CCc1ccc2n1[B-](F)(F)[N+]1=C(c3ccc[nH]3)C=CC1=C2 [Aminopotentidine-2-NB590] | 1.02 | 1.01 | 0.98 | 1.02 | 1.04 | 1.01 | 1.01 | 0.99 | –
O=C(CCc1ccc2n1[B-](F)(F)[N+]1=C(c3ccc[nH]3)C=CC1=C2)NCc1ccc(C(=O)NCCOCCC(=O)N[C@@H]2CC[C@@]3(O)[C@H]4Cc5ccc(O)c6c5[C@@]3(CCN4CC3CC3)[C@H]2O6)cc1 [Naltrexone-3-NB590] | 0.75 | 1.05 | 1.01 | 0.95 | 0.84 | 1.23 | 1.34 | 0.83 | –
Cc1cc2c(s1)Nc1ccccc1N=C2N1CCN(CCCNC(=O)CCOCCOCCOCCOCCNC(=O)CCc2ccc3n2[B-](F)(F)[N+]2=C(c4ccc[nH]4)C=CC2=C3)CC1 [Olanzapine-a-2-NB590] | 0.99 | 0.93 | 0.98 | 1.04 | 1.09 | 1.22 | 1.01 | 0.97 | –
CCCn1c(=O)c2[nH]c(-c3ccc(OCC(=O)NCCNC(=O)CCOCCNC(=O)c4ccc(CNC(=O)CCc5ccc6n5[B-](F)(F)[N+]5=C(c7ccc[nH]7)C=CC5=C6)cc4)cc3)nc2n(CCC)c1=O [XAC-3-NB590] | 1.03 | 1.07 | 1.02 | 1.02 | 10.95 | 7.99 | 1.07 | 1.05 | –
COc1ccc2c(n1)c(CCNC(C)=O)cn2CCNC(=O)CCc1ccc2n1[B-](F)(F)[N+]1=C(c3ccc[nH]3)C=CC1=C2 [Azamelatonin-1-NB590] | – | – | – | – | – | – | – | – | NanoBRET Fold Response ([1]; 0.1μM tracer): 1.09; NanoBRET Fold Response ([1]; 1μM tracer): 0.78; NanoBRET Fold Response ([2]; 0.1μM tracer): 1.16; NanoBRET Fold Response ([2]; 1μM tracer): 0.97; NanoBRET Fold Response ([3]; 0.1μM tracer): 0.87; NanoBRET Fold Response ([3]; 1μM tracer): 0.95; NanoBRET Fold Response ([4]; 0.1μM tracer): 0.98; NanoBRET Fold Response ([4]; 1μM tracer): 0.96
